In the NIST ThermoML archive (doi:10.1016/j.jct.2016.08.005):
± gives the expanded uncertainty stated by the source.

Conditions: Liquid, Vibrating tube method

Cc1ccc(C)s1 [2,5-dimethylthiophene]
Conditions	mass density [kg/m3]
283.15 K, 100 kPa	995.51 ± 0.5
283.15 K, 2000 kPa	996.96 ± 0.5
283.15 K, 5000 kPa	999.21 ± 0.5
283.15 K, 7000 kPa	1000.68 ± 0.5
283.15 K, 10000 kPa	1002.83 ± 0.5
283.15 K, 15000 kPa	1006.35 ± 0.5
283.15 K, 20000 kPa	1009.74 ± 0.5
283.15 K, 25000 kPa	1013.04 ± 0.5
283.15 K, 30000 kPa	1016.24 ± 0.5
283.15 K, 35000 kPa	1019.33 ± 0.5
283.15 K, 40000 kPa	1022.34 ± 0.51
283.15 K, 45000 kPa	1025.27 ± 0.51
283.15 K, 50000 kPa	1028.12 ± 0.51
283.15 K, 55000 kPa	1030.9 ± 0.51
283.15 K, 60000 kPa	1033.6 ± 0.51
283.15 K, 65000 kPa	1036.24 ± 0.52
288.15 K, 100 kPa	990.41 ± 0.5
288.15 K, 2000 kPa	991.9 ± 0.5
288.15 K, 5000 kPa	994.21 ± 0.5
288.15 K, 7000 kPa	995.72 ± 0.5
288.15 K, 10000 kPa	997.94 ± 0.5
288.15 K, 15000 kPa	1001.53 ± 0.5
288.15 K, 20000 kPa	1005.01 ± 0.5
288.15 K, 25000 kPa	1008.38 ± 0.5
288.15 K, 30000 kPa	1011.66 ± 0.5
288.15 K, 35000 kPa	1014.81 ± 0.5
288.15 K, 40000 kPa	1017.89 ± 0.5
288.15 K, 45000 kPa	1020.88 ± 0.51
288.15 K, 50000 kPa	1023.78 ± 0.51
288.15 K, 55000 kPa	1026.62 ± 0.51
288.15 K, 60000 kPa	1029.38 ± 0.51
288.15 K, 65000 kPa	1032.06 ± 0.51
293.15 K, 100 kPa	985.3 ± 0.5
293.15 K, 2000 kPa	986.82 ± 0.5
293.15 K, 5000 kPa	989.21 ± 0.5
293.15 K, 7000 kPa	990.74 ± 0.5
293.15 K, 10000 kPa	993.02 ± 0.5
293.15 K, 15000 kPa	996.71 ± 0.5
293.15 K, 20000 kPa	1000.28 ± 0.5
293.15 K, 25000 kPa	1003.72 ± 0.5
293.15 K, 30000 kPa	1007.07 ± 0.5
293.15 K, 35000 kPa	1010.31 ± 0.5
293.15 K, 40000 kPa	1013.45 ± 0.5
293.15 K, 45000 kPa	1016.49 ± 0.5
293.15 K, 50000 kPa	1019.47 ± 0.51
293.15 K, 55000 kPa	1022.35 ± 0.51
293.15 K, 60000 kPa	1025.15 ± 0.51
293.15 K, 65000 kPa	1027.88 ± 0.51
298.15 K, 100 kPa	980.2 ± 0.5
298.15 K, 2000 kPa	981.78 ± 0.5
298.15 K, 5000 kPa	984.2 ± 0.5
298.15 K, 7000 kPa	985.8 ± 0.5
298.15 K, 10000 kPa	988.14 ± 0.5
298.15 K, 15000 kPa	991.93 ± 0.5
298.15 K, 20000 kPa	995.59 ± 0.5
298.15 K, 25000 kPa	999.13 ± 0.5
298.15 K, 30000 kPa	1002.53 ± 0.5
298.15 K, 35000 kPa	1005.84 ± 0.5
298.15 K, 40000 kPa	1009.04 ± 0.5
298.15 K, 45000 kPa	1012.17 ± 0.5
298.15 K, 50000 kPa	1015.2 ± 0.5
298.15 K, 55000 kPa	1018.14 ± 0.51
298.15 K, 60000 kPa	1021.01 ± 0.51
298.15 K, 65000 kPa	1023.8 ± 0.51
303.15 K, 100 kPa	975.1 ± 0.5
303.15 K, 2000 kPa	976.72 ± 0.5
303.15 K, 5000 kPa	979.23 ± 0.5
303.15 K, 7000 kPa	980.88 ± 0.5
303.15 K, 10000 kPa	983.27 ± 0.5
303.15 K, 15000 kPa	987.17 ± 0.5
303.15 K, 20000 kPa	990.9 ± 0.5
303.15 K, 25000 kPa	994.52 ± 0.5
303.15 K, 30000 kPa	998.02 ± 0.5
303.15 K, 35000 kPa	1001.4 ± 0.5
303.15 K, 40000 kPa	1004.69 ± 0.5
303.15 K, 45000 kPa	1007.85 ± 0.5
303.15 K, 50000 kPa	1010.94 ± 0.5
303.15 K, 55000 kPa	1013.93 ± 0.5
303.15 K, 60000 kPa	1016.85 ± 0.51
303.15 K, 65000 kPa	1019.68 ± 0.51
308.15 K, 100 kPa	970 ± 0.5
308.15 K, 2000 kPa	971.66 ± 0.5
308.15 K, 5000 kPa	974.22 ± 0.5
308.15 K, 7000 kPa	975.91 ± 0.5
308.15 K, 10000 kPa	978.38 ± 0.5
308.15 K, 15000 kPa	982.36 ± 0.5
308.15 K, 20000 kPa	986.2 ± 0.5
308.15 K, 25000 kPa	989.91 ± 0.5
308.15 K, 30000 kPa	993.47 ± 0.5
308.15 K, 35000 kPa	996.93 ± 0.5
308.15 K, 40000 kPa	1000.28 ± 0.5
308.15 K, 45000 kPa	1003.53 ± 0.5
308.15 K, 50000 kPa	1006.66 ± 0.5
308.15 K, 55000 kPa	1009.75 ± 0.5
308.15 K, 60000 kPa	1012.72 ± 0.5
308.15 K, 65000 kPa	1015.59 ± 0.51
313.15 K, 100 kPa	964.84 ± 0.5
313.15 K, 2000 kPa	966.6 ± 0.5
313.15 K, 5000 kPa	969.22 ± 0.5
313.15 K, 7000 kPa	970.97 ± 0.5
313.15 K, 10000 kPa	973.5 ± 0.5
313.15 K, 15000 kPa	977.58 ± 0.5
313.15 K, 20000 kPa	981.52 ± 0.5
313.15 K, 25000 kPa	985.31 ± 0.5
313.15 K, 30000 kPa	988.97 ± 0.5
313.15 K, 35000 kPa	992.49 ± 0.5
313.15 K, 40000 kPa	995.92 ± 0.5
313.15 K, 45000 kPa	999.23 ± 0.5
313.15 K, 50000 kPa	1002.44 ± 0.5
313.15 K, 55000 kPa	1005.56 ± 0.5
313.15 K, 60000 kPa	1008.58 ± 0.5
313.15 K, 65000 kPa	1011.53 ± 0.5
318.15 K, 100 kPa	959.75 ± 0.5
318.15 K, 2000 kPa	961.52 ± 0.5
318.15 K, 5000 kPa	964.24 ± 0.5
318.15 K, 7000 kPa	966 ± 0.5
318.15 K, 10000 kPa	968.6 ± 0.5
318.15 K, 15000 kPa	972.8 ± 0.5
318.15 K, 20000 kPa	976.83 ± 0.5
318.15 K, 25000 kPa	980.72 ± 0.5
318.15 K, 30000 kPa	984.44 ± 0.5
318.15 K, 35000 kPa	988.06 ± 0.5
318.15 K, 40000 kPa	991.55 ± 0.5
318.15 K, 45000 kPa	994.93 ± 0.5
318.15 K, 50000 kPa	998.2 ± 0.5
318.15 K, 55000 kPa	1001.39 ± 0.5
318.15 K, 60000 kPa	1004.46 ± 0.5
318.15 K, 65000 kPa	1007.46 ± 0.5
323.15 K, 100 kPa	954.64 ± 0.5
323.15 K, 2000 kPa	956.46 ± 0.5
323.15 K, 5000 kPa	959.26 ± 0.5
323.15 K, 7000 kPa	961.09 ± 0.5
323.15 K, 10000 kPa	963.75 ± 0.5
323.15 K, 15000 kPa	968.05 ± 0.5
323.15 K, 20000 kPa	972.19 ± 0.5
323.15 K, 25000 kPa	976.16 ± 0.5
323.15 K, 30000 kPa	979.99 ± 0.5
323.15 K, 35000 kPa	983.67 ± 0.5
323.15 K, 40000 kPa	987.24 ± 0.5
323.15 K, 45000 kPa	990.69 ± 0.5
323.15 K, 50000 kPa	994.03 ± 0.5
323.15 K, 55000 kPa	997.27 ± 0.5
323.15 K, 60000 kPa	1000.41 ± 0.5
323.15 K, 65000 kPa	1003.46 ± 0.5
328.15 K, 100 kPa	949.46 ± 0.5
328.15 K, 2000 kPa	951.34 ± 0.5
328.15 K, 5000 kPa	954.21 ± 0.5
328.15 K, 7000 kPa	956.1 ± 0.5
328.15 K, 10000 kPa	958.85 ± 0.5
328.15 K, 15000 kPa	963.27 ± 0.5
328.15 K, 20000 kPa	967.5 ± 0.5
328.15 K, 25000 kPa	971.57 ± 0.5
328.15 K, 30000 kPa	975.49 ± 0.5
328.15 K, 35000 kPa	979.25 ± 0.5
328.15 K, 40000 kPa	982.9 ± 0.5
328.15 K, 45000 kPa	986.42 ± 0.5
328.15 K, 50000 kPa	989.84 ± 0.5
328.15 K, 55000 kPa	993.13 ± 0.5
328.15 K, 60000 kPa	996.35 ± 0.5
328.15 K, 65000 kPa	999.44 ± 0.5
333.15 K, 100 kPa	944.28 ± 0.5
333.15 K, 2000 kPa	946.2 ± 0.5
333.15 K, 5000 kPa	949.16 ± 0.5
333.15 K, 7000 kPa	951.09 ± 0.5
333.15 K, 10000 kPa	953.92 ± 0.5
333.15 K, 15000 kPa	958.46 ± 0.5
333.15 K, 20000 kPa	962.79 ± 0.51
333.15 K, 25000 kPa	966.97 ± 0.51
333.15 K, 30000 kPa	970.97 ± 0.51
333.15 K, 35000 kPa	974.83 ± 0.51
333.15 K, 40000 kPa	978.55 ± 0.5
333.15 K, 45000 kPa	982.15 ± 0.5
333.15 K, 50000 kPa	985.62 ± 0.5
333.15 K, 55000 kPa	988.98 ± 0.5
333.15 K, 60000 kPa	992.25 ± 0.5
333.15 K, 65000 kPa	995.41 ± 0.5
338.15 K, 100 kPa	939.09 ± 0.5
338.15 K, 2000 kPa	941.08 ± 0.5
338.15 K, 5000 kPa	944.14 ± 0.5
338.15 K, 7000 kPa	946.13 ± 0.5
338.15 K, 10000 kPa	949.02 ± 0.5
338.15 K, 15000 kPa	953.67 ± 0.51
338.15 K, 20000 kPa	958.14 ± 0.51
338.15 K, 25000 kPa	962.41 ± 0.51
338.15 K, 30000 kPa	966.51 ± 0.51
338.15 K, 35000 kPa	970.46 ± 0.51
338.15 K, 40000 kPa	974.25 ± 0.51
338.15 K, 45000 kPa	977.91 ± 0.51
338.15 K, 50000 kPa	981.46 ± 0.51
338.15 K, 55000 kPa	984.88 ± 0.5
338.15 K, 60000 kPa	988.2 ± 0.5
338.15 K, 65000 kPa	991.43 ± 0.5
